From patent US20240199546A1, “INHIBITORS OF SOLUTE CARRIER FAMILY 6A MEMBER 19 (SLC6A19) AND METHODS OF USE THEREOF” (Maze Therapeutics, Inc., priority 2022, published 2024) come the findings set out here.

The structures appear in SMILES notation.

This test deals with T1, human SLC6A19 and TMEM27 (Homo sapiens, UniProt Q695T7).
T1 construct: expressed in transfected cells
T1 sequence (Q695T7 1-634): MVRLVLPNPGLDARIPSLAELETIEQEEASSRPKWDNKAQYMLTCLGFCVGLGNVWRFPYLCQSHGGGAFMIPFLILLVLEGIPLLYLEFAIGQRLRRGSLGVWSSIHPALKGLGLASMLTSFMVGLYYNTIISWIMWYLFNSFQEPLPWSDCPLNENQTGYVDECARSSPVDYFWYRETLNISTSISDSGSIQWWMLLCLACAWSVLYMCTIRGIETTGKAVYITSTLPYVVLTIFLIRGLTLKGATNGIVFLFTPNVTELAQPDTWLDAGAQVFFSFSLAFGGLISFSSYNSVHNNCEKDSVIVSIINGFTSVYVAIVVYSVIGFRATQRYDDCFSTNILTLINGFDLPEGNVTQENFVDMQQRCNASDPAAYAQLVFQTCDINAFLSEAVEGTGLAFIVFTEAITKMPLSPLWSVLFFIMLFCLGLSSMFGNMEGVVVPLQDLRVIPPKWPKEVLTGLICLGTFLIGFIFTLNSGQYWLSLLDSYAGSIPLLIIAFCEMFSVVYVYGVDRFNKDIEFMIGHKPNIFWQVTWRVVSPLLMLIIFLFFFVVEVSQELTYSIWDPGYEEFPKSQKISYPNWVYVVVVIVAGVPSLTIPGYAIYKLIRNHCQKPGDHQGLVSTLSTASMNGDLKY
T1 sequence (Q9HBJ8 15-222 partner): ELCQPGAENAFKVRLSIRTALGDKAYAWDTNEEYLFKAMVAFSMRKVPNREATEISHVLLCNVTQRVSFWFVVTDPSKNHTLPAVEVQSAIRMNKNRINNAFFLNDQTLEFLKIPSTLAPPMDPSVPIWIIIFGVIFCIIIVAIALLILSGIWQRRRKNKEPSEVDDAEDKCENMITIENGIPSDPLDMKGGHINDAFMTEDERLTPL
The experiment in a line: Radiolabelled (3H) leucine uptake in CHO cells with doxycycline-inducible expression of human SLC6A19 and TMEM27 (Example B-1). The format is cell-based. The settings on record: CHO cells with doxycycline-inducible expression of human SLC6A19 and TMEM27, read-out: SLC6A19_Radioligand Uptake Assay IC50. Summed up: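 CHO cells were induced with doxycycline for 18 h at 37 °C, washed in HBSS, then exposed to compounds for 1 h: 8-point, 3-fold dilutions in duplicate, 0.5% DMSO final. Uptake measured by scintillation counting after 2 h shaking. Activity normalized with positive control as 0% and DMSO as 100%.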
In the case of `CC(=O)NCc1cc2c(F)cc(OCc3ccon3)cc2[nH]1` [Compound 453, N-((4-fluoro-6-(isoxazol-3-ylmethoxy)-1H-indol-2-yl)methyl)acetamide], the half-inhibitory concentration (IC50) worked out at 859 nM.

As to `COC(C)COc1cc2[nH]c(CNC(=O)C3(C)CC3)cc2cc1Cl` (stereo not shown) [Compound 454, N-((5-chloro-6-(2-methoxypropoxy)-1H-indol-2-yl)methyl)-1-methylcyclopropane-1-carboxamide], the concentration for half-maximal inhibition (IC50) came to 787 nM. For `CC(=O)NCc1cc2cc(Cl)c(OCCC3CCCO3)cc2[nH]1` (stereo not shown) [Compound 455, N-((5-chloro-6-(2-(tetrahydrofuran-2-yl)ethoxy)-1H-indol-2-yl)methyl)acetamide] the value was 3530 nM. For `CC(=O)NCc1cc2cc(Cl)c(OCCOC3CCC3)cc2[nH]1` [Compound 456, N-((5-chloro-6-(2-cyclobutoxyethoxy)-1H-indol-2-yl)methyl)acetamide] the value was 4260 nM; for `CC(=O)NCc1cc2cc(Cl)c(OCC3COCCO3)cc2[nH]1` (stereo not shown) [Compound 457, N-((6-((1,4-dioxan-2-yl)methoxy)-5-chloro-1H-indol-2-yl)methyl)acetamide], 3640 nM. For `CC(=O)NCc1cc2cc(Cl)c(OCC3CC3(F)F)cc2[nH]1` (stereo not shown) [Compound 458, N-((5-chloro-6-((2,2-difluorocyclopropyl)methoxy)-1H-indol-2-yl)methyl)acetamide], the 50% inhibitory concentration (IC50) is 7670 nM. For `CCOCCOc1cc2[nH]c(CNC(C)=O)cc2cc1Cl` [Compound 459, N-((5-chloro-6-(2-ethoxyethoxy)-1H-indol-2-yl)methyl)acetamide], the concentration for half-maximal inhibition (IC50) came to 505 nM.

`CO[C@H]1C[C@H](Oc2cc3[nH]c(CNC(C)=O)cc3cc2Cl)C1` [Compound 462, N-((5-chloro-6-((trans)-3-methoxycyclobutoxy)-1H-indol-2-yl)methyl)acetamide]: the 50% inhibitory concentration (IC50) was determined as 2000 nM. As for `CO[C@H]1C[C@@H](Oc2cc3[nH]c(CNC(C)=O)cc3cc2Cl)C1` [Compound 463, N-((5-chloro-6-((cis)-3-methoxycyclobutoxy)-1H-indol-2-yl)methyl)acetamide], the figure is greater than 8730 nM. For `CC(=O)NCc1cc2cc(Cl)c(OC[C@H]3CCOC3)cc2[nH]1` [Compound 464, (S)-N-((5-chloro-6-((tetrahydrofuran-3-yl)methoxy)-1H-indol-2-yl)methyl)acetamide] the value was 1350 nM. For `CC(=O)NCc1cc2cc(Cl)c(OC[C@H]3CCCO3)cc2[nH]1` [Compound 465, (R)-N-((5-chloro-6-((tetrahydrofuran-2-yl)methoxy)-1H-indol-2-yl)methyl)acetamide] the value was 6210 nM; for `CC(=O)NCc1cc2cc(Cl)c(OC[C@@H]3CCCO3)cc2[nH]1` [Compound 466, (S)-N-((5-chloro-6-((tetrahydrofuran-2-yl)methoxy)-1H-indol-2-yl)methyl)acetamide], 2960 nM; for `O=C(NCc1cc2cc(OC(F)(F)F)c(CCc3cocn3)cc2[nH]1)N1CCC1` [Compound 467, N-((6-(2-(oxazol-4-yl)ethyl)-5-(trifluoromethoxy)-1H-indol-2-yl)methyl)azetidine-1-carboxamide], 145 nM. With `O=C(NCc1cc2cc(OC(F)(F)F)c(CCc3cocn3)cc2[nH]1)N1CCCC1` [Compound 468, N-((6-(2-(oxazol-4-yl)ethyl)-5-(trifluoromethoxy)-1H-indol-2-yl)methyl)pyrrolidine-1-carboxamide], the 50% inhibitory concentration (IC50) worked out at 422 nM. For the compound `Cc1cc(CNc2cc3[nH]c(CNC(=O)N4CCCC4)cc3cc2Cl)no1` [Compound 469, N-((5-chloro-6-(((5-methylisoxazol-3-yl)methyl)amino)-1H-indol-2-yl)methyl)pyrrolidine-1-carboxamide], the half-maximal inhibitory concentration (IC50) came out at 392 nM. As for `Cc1c(CNC(=O)N2CCC2)[nH]c2cc(OCc3cscn3)c(Cl)cc12` [Compound 473, N-((5-chloro-3-methyl-6-(thiazol-4-ylmethoxy)-1H-indol-2-yl)methyl)azetidine-1-carboxamide], the figure is 293 nM. For `O=C(NCc1[nH]c2cc(OCc3cscn3)c(Cl)cc2c1Cl)N1CCC1` [Compound 474, N-((3,5-dichloro-6-(thiazol-4-ylmethoxy)-1H-indol-2-yl)methyl)azetidine-1-carboxamide] the value was 553 nM; for `O=C(NCc1cc2cc(C(F)(F)F)c(OCc3ccon3)cc2[nH]1)N1CCCC1` [Compound 476, N-((6-(isoxazol-3-ylmethoxy)-5-(trifluoromethyl)-1H-indol-2-yl)methyl)pyrrolidine-1-carboxamide], 408 nM. As to `O=C(NCc1cc2cc(C(F)(F)F)c(OCc3ccon3)cc2[nH]1)N1CCC1` [Compound 477, N-((6-(isoxazol-3-ylmethoxy)-5-(trifluoromethyl)-1H-indol-2-yl)methyl)azetidine-1-carboxamide], the IC50 was determined as 383 nM. As for `O=C(NCc1cc2cc(OC(F)(F)F)c(OCc3cocn3)cc2[nH]1)N1CCC1` [Compound 480, N-((6-(oxazol-4-ylmethoxy)-5-(trifluoromethoxy)-1H-indol-2-yl)methyl)azetidine-1-carboxamide], the figure is 372 nM. As for `[2H]C([2H])([2H])C1(C(=O)NCc2cc3cc(F)c(OCc4cscn4)cc3[nH]2)CC1` [Compound 482, N-((5-fluoro-6-(thiazol-4-ylmethoxy)-1H-indol-2-yl)methyl)-1-(methyl-d3)cyclopropane-1-carboxamide], the figure is 149 nM; as for `[2H]C([2H])([2H])C1(C(=O)NCc2cc3cc(Cl)c(OCc4cscn4)cc3[nH]2)CC1` [Compound 483, N-((5-chloro-6-(thiazol-4-ylmethoxy)-1H-indol-2-yl)methyl)-1-(methyl-d3)cyclopropane-1-carboxamide], 170 nM.

Take `Cc1cc(COc2cc3[nH]c(CNC(=O)C4(C#N)CC4)cc3cc2Cl)on1` [Compound 484, N-((5-chloro-6-((3-methylisoxazol-5-yl)methoxy)-1H-indol-2-yl)methyl)-1-cyanocyclopropane-1-carboxamide]: the IC50 amounted to 199 nM. For the compound `Cc1cc(COc2cc3[nH]c(CNC(=O)C(C)(C)C#N)cc3cc2Cl)on1` [Compound 485, N-((5-chloro-6-((3-methylisoxazol-5-yl)methoxy)-1H-indol-2-yl)methyl)-2-cyano-2-methylpropanamide], the half-maximal inhibitory concentration (IC50) came to 578 nM. As for `Cc1cc(COc2cc3[nH]c(CNC(=O)C4(C#N)CCC4)cc3cc2Cl)on1` [Compound 487, N-((5-chloro-6-((3-methylisoxazol-5-yl)methoxy)-1H-indol-2-yl)methyl)-1-cyanocyclobutane-1-carboxamide], the IC50 amounted to 367 nM. For `O=C(NCc1cc2cc(Cl)c(OCc3ccon3)cc2[nH]1)C1CCC1` [Compound 488, N-((5-chloro-6-(isoxazol-3-ylmethoxy)-1H-indol-2-yl)methyl)cyclobutanecarboxamide] the value was 161 nM; for `O=C(NCc1cc2cc(Cl)c(OCc3cscn3)cc2[nH]1)C1CCCC1` [Compound 489, N-((5-chloro-6-(thiazol-4-ylmethoxy)-1H-indol-2-yl)methyl)cyclopentanecarboxamide], 325 nM; for `O=C(NCc1cc2cc(Cl)c(OCc3cscn3)cc2[nH]1)C1CCC1` [Compound 490, N-((5-chloro-6-(thiazol-4-ylmethoxy)-1H-indol-2-yl)methyl)cyclobutanecarboxamide], 178 nM.
